From ChEMBL document CHEMBL1909046, “DrugMatrix in vitro pharmacology data”
pIC50, pKi: −log10 of the molar value.

Experiments:
[1] = target: Beta-3 adrenergic receptor (Homo sapiens, UniProt P13945); assay: DRUGMATRIX: Adrenergic beta3 radioligand binding (ligand: [125I] Cyanopindolol); type: cell membranes, HEK293, Membrane; settings: Not Active = under 50% inhibition at 10 µM; for IC50 / Ki: hek293
[2] = target: T1, Thromboxane-A synthase (Homo sapiens, UniProt P24557); assay: biochemical; type: tissue-based, Platelet; settings: for IC50 / Ki: platelet;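 for all read-outs here: enzyme inhibition assay with PGH2 supplied as substrate; in other assays of this panel Not Active means under 50% inhibition at 10 µM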
T1 sequence (P24557 whole entry): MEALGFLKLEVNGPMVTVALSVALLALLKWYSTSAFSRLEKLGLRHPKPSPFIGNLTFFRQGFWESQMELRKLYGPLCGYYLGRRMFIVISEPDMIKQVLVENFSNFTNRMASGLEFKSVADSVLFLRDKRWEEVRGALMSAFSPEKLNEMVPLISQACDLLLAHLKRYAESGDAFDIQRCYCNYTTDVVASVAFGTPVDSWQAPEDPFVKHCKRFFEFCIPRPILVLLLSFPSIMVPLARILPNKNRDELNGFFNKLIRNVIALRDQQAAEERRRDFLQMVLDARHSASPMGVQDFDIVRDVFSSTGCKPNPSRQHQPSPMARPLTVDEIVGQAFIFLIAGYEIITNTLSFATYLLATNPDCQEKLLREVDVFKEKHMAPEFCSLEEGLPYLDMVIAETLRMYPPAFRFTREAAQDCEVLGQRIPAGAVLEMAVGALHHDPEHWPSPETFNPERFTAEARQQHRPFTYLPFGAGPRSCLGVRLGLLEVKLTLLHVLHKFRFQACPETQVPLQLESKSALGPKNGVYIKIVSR

[3] = target: Cannabinoid receptor 1 (Homo sapiens, UniProt P21554); type: cell membranes, Chem-1, Membrane; settings: for IC50 / Ki: chem-1; for all read-outs here: in other assays of this panel Not Active means under 50% inhibition at 10 µM
[4] = target: Carbonic anhydrase 2 (Homo sapiens, UniProt P00918); assay: DRUGMATRIX: Carbonic Anhydrase II enzyme inhibition (substrate: 4-Nitrophenyl acetate (4-NPA)); type: tissue-based, Erythrocyte; settings: erythrocyte; Not Active = under 50% inhibition at 10 µM
[5] = DRUGMATRIX: Glutamate, Kainate radioligand binding (ligand: [3H] Kainic acid); type: cell membranes, Rattus norvegicus, Wistar, Brain, Membrane; settings: Not Active = under 50% inhibition at 10 µM
[6] = target: T2, Muscarinic acetylcholine receptor M2 (Homo sapiens, UniProt P08172); type: cell membranes, CHO-K1, Membrane; settings: for IC50 / Ki: cho-k1; for all read-outs here: in other assays of this panel Not Active means under 50% inhibition at 10 µM
T2 sequence (P08172 whole entry): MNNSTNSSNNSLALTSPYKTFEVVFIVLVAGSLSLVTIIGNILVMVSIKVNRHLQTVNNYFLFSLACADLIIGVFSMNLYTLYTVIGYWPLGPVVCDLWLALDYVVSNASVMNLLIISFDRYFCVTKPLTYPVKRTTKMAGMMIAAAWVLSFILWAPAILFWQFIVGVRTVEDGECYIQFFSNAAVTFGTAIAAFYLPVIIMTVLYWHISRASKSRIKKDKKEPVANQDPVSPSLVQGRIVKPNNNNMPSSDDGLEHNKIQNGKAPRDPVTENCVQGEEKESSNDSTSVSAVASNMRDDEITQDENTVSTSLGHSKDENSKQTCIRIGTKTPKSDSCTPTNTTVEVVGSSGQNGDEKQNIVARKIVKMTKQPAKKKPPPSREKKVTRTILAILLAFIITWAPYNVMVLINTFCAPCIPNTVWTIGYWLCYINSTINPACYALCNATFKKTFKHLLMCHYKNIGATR

Chain of Beta-3 adrenergic receptor (P13945 whole entry): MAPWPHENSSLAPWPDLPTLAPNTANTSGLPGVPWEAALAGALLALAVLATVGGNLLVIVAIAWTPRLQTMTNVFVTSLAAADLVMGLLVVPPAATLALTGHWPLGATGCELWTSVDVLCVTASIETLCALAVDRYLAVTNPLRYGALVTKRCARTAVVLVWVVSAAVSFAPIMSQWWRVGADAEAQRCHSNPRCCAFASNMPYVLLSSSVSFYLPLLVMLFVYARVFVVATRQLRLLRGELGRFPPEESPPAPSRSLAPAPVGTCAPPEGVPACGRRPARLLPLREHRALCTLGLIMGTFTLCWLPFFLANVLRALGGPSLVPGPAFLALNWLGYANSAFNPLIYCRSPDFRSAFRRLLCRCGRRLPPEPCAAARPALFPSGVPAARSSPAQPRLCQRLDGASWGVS
Chain of Cannabinoid receptor 1 (P21554 whole entry): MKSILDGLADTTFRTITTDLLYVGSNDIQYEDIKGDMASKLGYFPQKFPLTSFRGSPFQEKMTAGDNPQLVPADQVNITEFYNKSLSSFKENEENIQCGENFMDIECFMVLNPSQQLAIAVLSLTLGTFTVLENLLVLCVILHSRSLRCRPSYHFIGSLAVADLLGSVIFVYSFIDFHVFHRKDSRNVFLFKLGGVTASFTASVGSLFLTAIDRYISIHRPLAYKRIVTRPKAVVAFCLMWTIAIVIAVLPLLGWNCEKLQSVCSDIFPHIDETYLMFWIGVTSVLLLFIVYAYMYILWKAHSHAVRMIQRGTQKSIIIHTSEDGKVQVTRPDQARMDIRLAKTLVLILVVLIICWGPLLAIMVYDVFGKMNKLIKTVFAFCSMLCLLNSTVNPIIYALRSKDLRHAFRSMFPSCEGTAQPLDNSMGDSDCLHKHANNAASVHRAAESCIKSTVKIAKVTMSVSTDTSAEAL

| Compound | IC50 [1] | IC50 [2] | IC50 [3] | IC50 [4] | IC50 [5] | Ki [5] | IC50 [6] | Ki [1] | Ki [2] | Ki [3] | Ki [4] | Ki [6] | pIC50 ([6]; read-out: IC50) | pKi ([6]; read-out: Ki) | pIC50 ([1]; read-out: IC50) | pKi ([1]; read-out: Ki) | pIC50 ([2]; read-out: IC50) | pIC50 ([3]; read-out: IC50) | pKi ([3]; read-out: Ki) |
| --- | --- | --- | --- | --- | --- | --- | --- | --- | --- | --- | --- | --- | --- | --- | --- | --- | --- | --- | --- |
| ClC1=C(Cl)[C@]2(Cl)[C@@H]3[C@@H]4C[C@@H]([C@H]5O[C@@H]45)[C@@H]3[C@@]1(Cl)C2(Cl)Cl [DIELDRIN] | Not Active | Not Active | Not Active | Not Active | Not Active | Not Active | Not Active | – | – | – | – | – | – | – | – | – | – | – | – |
| CARBOXYMETHYLCELLULOSE | Not Active | Not Active | Not Active | Not Active | Not Active | Not Active | Not Active | Not Active | Not Active | Not Active | Not Active | Not Active | – | – | – | – | – | – | – |
| CC(CN1c2ccccc2Sc2ccccc21)N(C)C (stereo not given) [PROMETHAZINE] | Not Active | Not Active | Not Active | Not Active | Not Active | Not Active | – | – | – | – | – | – | 7.46 | 7.92 | – | – | – | – | – |
| NCC(CC(=O)O)c1ccc(Cl)cc1 (stereo not given) [BACLOFEN] | Not Active | Not Active | Not Active | Not Active | Not Active | Not Active | Not Active | – | – | – | – | – | – | – | – | – | – | – | – |
| CN(CCOc1ccc(C[C@H](Nc2ccccc2C(=O)c2ccccc2)C(=O)O)cc1)c1ccccn1 | – | – | Not Active | Not Active | Not Active | Not Active | Not Active | – | – | – | – | – | – | – | 4.66 | 4.78 | 5.53 | – | – |
| COPPER(II) OXIDE | Not Active | Not Active | Not Active | Not Active | Not Active | Not Active | Not Active | Not Active | Not Active | Not Active | Not Active | Not Active | – | – | – | – | – | – | – |
| Cl.NC[C@H]1CC[C@H](C(=O)Oc2ccc(CCC(=O)O)cc2)CC1 [CETRAXATE HYDROCHLORIDE] | Not Active | Not Active | Not Active | Not Active | Not Active | Not Active | Not Active | – | – | – | – | – | – | – | – | – | – | – | – |
| C[C@H](C(=O)O)c1ccc2oc(-c3ccc(F)cc3)nc2c1 [FLUNOXAPROFEN] | Not Active | Not Active | Not Active | Not Active | Not Active | Not Active | Not Active | – | – | – | – | – | – | – | – | – | – | – | – |
| CCN1CCN(c2cc3c(cc2F)c(=O)c(C(=O)O)cn3C2CC2)CC1 [ENROFLOXACIN] | Not Active | Not Active | Not Active | Not Active | Not Active | Not Active | Not Active | – | – | – | – | – | – | – | – | – | – | – | – |
| C[C@]12CC[C@@H](O)C[C@@H]1CC[C@@H]1[C@@H]2CC[C@]2(C)C(=O)CC[C@@H]12 [ANDROSTERONE] | Not Active | Not Active | Not Active | Not Active | Not Active | Not Active | Not Active | – | – | – | – | – | – | – | – | – | – | – | – |
| O=C(NCCN1CCOCC1)c1ccc(Cl)cc1 [MOCLOBEMIDE] | Not Active | Not Active | Not Active | Not Active | Not Active | Not Active | Not Active | – | – | – | – | – | – | – | – | – | – | – | – |
| NC(=O)CN1CCCC1=O | Not Active | Not Active | Not Active | Not Active | Not Active | Not Active | Not Active | – | – | – | – | – | – | – | – | – | – | – | – |
| Oc1ccccc1 [PHENOL] | Not Active | Not Active | Not Active | Not Active | Not Active | Not Active | Not Active | – | – | – | – | – | – | – | – | – | – | – | – |
| CCO [ALCOHOL] | Not Active | Not Active | Not Active | Not Active | Not Active | Not Active | Not Active | – | – | – | – | – | – | – | – | – | – | – | – |
| COc1ccc(Cl)cc1C(=O)NCCc1ccc(S(=O)(=O)NC(=O)NC2CCCCC2)cc1 [GLYBURIDE] | Not Active | Not Active | Not Active | Not Active | Not Active | Not Active | Not Active | – | – | – | – | – | – | – | – | – | – | – | – |
| OC[C@H]1O[C@@H]2O[C@H]3[C@H](O)[C@@H](O)[C@@H](O[C@H]4[C@H](O)[C@@H](O)[C@@H](O[C@H]5[C@H](O)[C@@H](O)[C@@H](O[C@H]6[C@H](O)[C@@H](O)[C@@H](O[C@H]7[C@H](O)[C@@H](O)[C@@H](O[C@H]8[C@H](O)[C@@H](O)[C@@H](O[C@H]1[C@H](O)[C@H]2O)O[C@@H]8CO)O[C@@H]7CO)O[C@@H]6CO)O[C@@H]5CO)O[C@@H]4CO)O[C@@H]3CO [BETADEX] | Not Active | Not Active | Not Active | Not Active | Not Active | Not Active | Not Active | – | – | – | – | – | – | – | – | – | – | – | – |
| NC(N)=Nc1nc(CSCCC(N)=NS(N)(=O)=O)cs1 [FAMOTIDINE] | Not Active | Not Active | Not Active | Not Active | Not Active | Not Active | Not Active | – | – | – | – | – | – | – | – | – | – | – | – |
| COc1cc(NC(C)CCCN)c2ncccc2c1 (stereo not given) [PRIMAQUINE] | Not Active | Not Active | Not Active | Not Active | Not Active | Not Active | Not Active | – | – | – | – | – | – | – | – | – | – | – | – |
| Cc1c(N)nc([C@H](CC(N)=O)NC[C@H](N)C(N)=O)nc1C(=O)N[C@H](C(=O)N[C@H](C)[C@@H](O)[C@H](C)C(=O)N[C@H](C(=O)NCCc1nc(-c2nc(C(=O)NCCC[S+](C)C)cs2)cs1)[C@@H](C)O)[C@@H](O[C@@H]1O[C@@H](CO)[C@@H](O)[C@H](O)[C@@H]1O[C@H]1O[C@H](CO)[C@@H](O)[C@H](OC(N)=O)[C@@H]1O)c1c[nH]cn1.[Br-] [BLEOMYCIN A2] | Not Active | Not Active | Not Active | Not Active | Not Active | Not Active | Not Active | – | – | – | – | – | – | – | – | – | – | – | – |
| O=C(O)CNCP(=O)(O)O [GLYPHOSATE] | Not Active | Not Active | Not Active | Not Active | Not Active | Not Active | Not Active | – | – | – | – | – | – | – | – | – | – | – | – |
| c1ccc2c(c1)Nc1ccccc1S2 [PHENOTHIAZINE] | Not Active | Not Active | – | Not Active | Not Active | Not Active | Not Active | – | – | – | – | – | – | – | – | – | – | 4.60 | 4.71 |
| OC[C@H]1OC2C3[C@@H](CO)OC(O[C@H]4[C@H](O)[C@@H](O)[C@@H](O[C@H]5[C@H](O)[C@@H](O)[C@@H](O[C@H]6[C@H](O)[C@@H](O)[C@@H](O[C@H]7[C@H](O)[C@@H](O)[C@@H](O[C@H]8[C@H](O)[C@@H](O)[C@@H](O[C@H]9[C@H](O)[C@@H](O)C(OC1[C@H](O)[C@H]2O)O[C@@H]9CO)O[C@@H]8CO)O[C@@H]7CO)O[C@@H]6CO)O[C@@H]5CO)O[C@@H]4CO)[C@H](O)[C@H]3O | Not Active | Not Active | Not Active | Not Active | Not Active | Not Active | Not Active | – | – | – | – | – | – | – | – | – | – | – | – |
| CC(C)Cc1ccc([C@H](C)C(=O)O)cc1 [DEXIBUPROFEN] | Not Active | Not Active | Not Active | Not Active | Not Active | Not Active | Not Active | – | – | – | – | – | – | – | – | – | – | – | – |
| CC(N)Cc1c[nH]c2ccc(OCc3cccs3)cc12 (stereo not given) [BW-723C86] | Not Active | Not Active | Not Active | Not Active | Not Active | Not Active | Not Active | – | – | – | – | – | – | – | – | – | – | – | – |
| CC(=O)[C@]1(O)Cc2c(O)c3c(c(O)c2[C@@H](O[C@H]2C[C@H](N)[C@H](O)[C@H](C)O2)C1)C(=O)c1ccccc1C3=O [IDARUBICIN] | Not Active | Not Active | Not Active | Not Active | Not Active | Not Active | Not Active | – | – | – | – | – | – | – | – | – | – | – | – |
| NC(=O)NC(=O)Cc1ccccc1 [PHENACEMIDE] | Not Active | Not Active | Not Active | Not Active | Not Active | Not Active | Not Active | – | – | – | – | – | – | – | – | – | – | – | – |
